Results as given in patent publication US5512431A, “Methods of screening for nucleoside analogs that are incorporated by HIV reverse transcriptase and cause incorrect base pairing” (priority 1994, dated 1996).

Tests used:
[1] = test system: mammalian DNA polymerase-β; assay: Incorporation by mammalian DNA polymerase-β; type: biochemical
Protocol: (§1) Five different mammalian DNA polymerases have been identified, purified and characterized. These are designated as DNA polymerases α, β, γ, δ, ε based on their amino acid sequences, intracellular localization and presumed role in cellular DNA metabolism (Fry and Loeb, CRC Press, 1986). The ability of a human DNA polymerase to incorporate a deoxynucleoside triphosphates analogs is determined using a DNA template that corresponds to the sequence of the RNA template used to analyze incorporation by HIV RT. A direct comparison is made on the incorporation of nucleoside analogs in the triphosphate form using a human DNA polymerase with that of HIV RT.

[2] = test system: mammalian DNA polymerase-α; assay: Incorporation by mammalian DNA polymerase-α; type: biochemical
Protocol: as §1

HIV-RT = molecular target: T1, HIV-RT (HIV-1 M:B_HXB2R, UniProt P04585); assay: Incorporation of oxidized dCTP derivatives into gapped M13mp2 DNA by HIV-RT; type: biochemical; conditions: for Molecules incorporated by HIV-RT per molecule of template: 2 min incubation
T1 construct: mature RT cut from Gag-Pol polyprotein (Pr160Gag-Pol)
Protocol: The purification of oxidized derivatives of dCTP is monitored by measuring incorporation into gapped DNA. The gapped DNA consists of a single-stranded circular M13mp2 DNA containing uracil residues annealed to a linear incomplete complementary strand lacking uracil so as to create a 361-nt gap spanning part of the lacZ gene (prepared as described in Feig and Loeb, Biochemistry 32:4466-73, 1993). The reaction mixture (0.02 ml) contains: 200 ng of gapped DNA, 60 mM Tris-HCl (pH 8.0), 10 mM KCl, 7 mM MgCl2, 1 mM dithiothreitol, 0.5 mM EDTA, 200 μM (each) dATP, dGTP and TTP, 1 μM α-^32 P!dCTP or modified dCTP (692 cpm/pmol), and 1.25 units of recombinant HIV-RT (Preston et al., Science 242:1168-1171, 1988) (1 unit is the amount of enzyme required to catalyze the incorporation of 1 nmol of dNTP into DNA in 1 h at 37° C.). The nucleotide bias in this reaction drives the incorporation of modified cytosine only at sites opposite guanosines in the lacZα gene. Samples are extracted once each with phenol and chloroform/isoamyl alcohol, 24:1, followed by ethanol precipitation in the presence of 400 mM NaCl and 10 μg of glycogen (as a coprecipitant). […]
The column fractions are used in place of dCTP for DNA synthesis reactions. […] Partially double-stranded DNA products are purified, and gap filling synthesis is completed using the Klenow fragment of E. coli DNA polymerase I. Incorporation of oxidized cytosine derivatives is quantified by scintillation counting and the toxicity of the fractions is assessed by comparing the transfection efficiency of DNA synthesized by using fractions containing the altered nucleotides to that of DNA synthesized with dCTP passed through the same column. The mutagenicity of each fraction is measured by scoring forward mutations in the lacZ gene for β-galactosidase (Kunkel, Proc. Natl. Acad Sci. USA 81:1494-1498, 1984).

lacZ gene = assay: Forward mutation assay in lacZ of gapped M13mp2 DNA (reduced α-complementation) after transfection into E. coli; type: cell-based; conditions: for Transfection efficiency, plaques per ng: Table I, gap filled by pol-I1f; for Transfection efficiency, plaques per ng / Transfection efficiency (yield of transfectants) / Mutation frequency: with HIV-RT; for Mutation frequency: number of mutants in parentheses in Table I
Description: The column fractions are used in place of dCTP for DNA synthesis reactions. The DNA template is a double-stranded M13mp2 molecule with a 361-nt single-stranded gap spanning part of the lacZ gene for bacterial β-galactosidase. The uracil-containing strand is rapidly hydrolyzed upon transfection in E. coli, resulting in a 10^4 -fold preferential expression of the strand lacking uracil and preventing the repair of altered cytidines incorporated into the strand lacking uracil. DNA synthesis is catalyzed by HIV RT in the presence of 200 μM dATP, dGTP and TTP and 1 μM of each fraction from the reverse-phase column. Partially double-stranded DNA products are purified, and gap filling synthesis is completed using the Klenow fragment of E. coli DNA polymerase I. Incorporation of oxidized cytosine derivatives is quantified by scintillation counting and the toxicity of the fractions is assessed by comparing the transfection efficiency of DNA synthesized by using fractions containing the altered nucleotides to that of DNA synthesized with dCTP passed through the same column. The mutagenicity of each fraction is measured by scoring forward mutations in the lacZ gene for β-galactosidase (Kunkel, Proc. Natl. Acad Sci. USA 81:1494-1498, 1984).
Mutations produced by the incorporation of oxidized derivatives of dCTP into gapped DNA are identified by reduced α-complementation of β-galactosidase activity. Logarithmic-phase MC1061 hsdR, mcrR, araD, (139.increment.^- araABC^- leu) 7679.increment.lacX74, galU, galK, rspL, thi^- ! is prepared for electroporation by washing the cells four times with sterile H2 O. Cells are then pelleted and resuspended in a volume of H2 O equal to that of the packed cells. Fifty nanograms of the filled-gap DNA product is mixed with 300 μl of cells and subjected to electroporation using a Bio-Rad Gene Pulser ([…], 400 W, 2.0 KV, and time constants between 6.0 and 7.5). Samples are placed on ice and mixed with 1 ml of LB medium. Aliquots (10-40 μl) of the transfection mixtures are added to 3 ml of molten top agar (42° C.) consisting of 0.9% NaCl, 0.8% Bacto Agar, 0.08% 5-bromo-4-chloro-3-indolylβ-D-galactoside dissolved in dimethlyformamide, and 0.2 ml of CSH50 .increment.(proBlac)/F'+raD36, thi^-, ara^-, proAB, lacI^α Z^- .increment.m15! cells in logarithmic phase, and layered onto plates containing 30 ml of solidified M9 medium supplemented with 1.5% Bacto Agar and 15 mM isopropyl-β-D-thiogalactoside (IPTG). Phenotypes are confirmed by mixing mutant phage with an equal quantity of wild type M13mp2 phage and replating. Phage DNA is isolated (Kunkel, Proc. Natl. Sci. USA 81:1494-1498, 1984) and sequenced by the method of Sanger etal. (J. Mol. Biol. 125:225-246, 1978) using a 15-mer oligodeoxyribonucleotide primer complementary to the +179 to +194 segment of the lacZα coding sequence.
Mutagenic potential of γ is assessed by using a forward mutation assay. To reduce the frequency of mutations arising from the incorporation of noncomplementary nucleotides by HIV-RT, this incubation is performed for only 2 min. Under these conditions, HIV-RT incorporates approximately five molecules of γ or nine molecules of undamaged dCTP per molecule of template. The gapped DNA is then completely filled by pol-I1f (the large fragment of E. coli DNA polymerase I) using the four undamaged nucleotides as substrates. The transfection efficiencies and mutation frequencies are given in Table I. In reactions without HIV-RT, 1040 transfectants are obtained per ng DNA, whereas with HIV-RT and undamaged dCTP ("purified" by reverse-phase and strong-anion exchange chromatography) the yield is 165 transfectants per ng of DNA. Substitution of γ for dCTP further reduced transfection efficiency, 73 transfectants per ng of DNA. In the absence of HIV-RT the mutation frequency is 4.6×10^-4 (line 1, Table I). […]

| Structure (SMILES) | Incorporation by mammalian DNA polymerase-β relative to dCTP [1] | Incorporation by mammalian DNA polymerase-α [2] | Molecules incorporated by HIV-RT per molecule of template (HIV-RT) | Efficiency of incorporation into DNA by HIV-RT, % of that for dCTP (HIV-RT; relative to dCTP, gapped DNA) | Mutations that were C→T transitions (lacZ gene; 173 mutations, 92 mutants sequenced) | Observed substitutions that occur at cytosines (lacZ gene; 178 of 181 substitutions, 92 mutants sequenced) | Transfection efficiency, plaques per ng (lacZ gene) | Increase of mutation frequency (lacZ gene; average of five molecules of γ per template DNA, versus reaction with dCTP) | Transfection efficiency (yield of transfectants) (lacZ gene) | Mutation frequency (lacZ gene) | Increase of mutation frequency by reaction with HIV-RT and dCTP (lacZ gene; versus absence of HIV-RT) |
| --- | --- | --- | --- | --- | --- | --- | --- | --- | --- | --- | --- |
| Nc1nc(=O)n([C@H]2C[C@H](O)[C@@H](COP(=O)(O)OP(=O)(O)OP(=O)(O)O)O2)cc1O [γ, 5-hydroxy-2'-deoxycytidine 5'-triphosphate] | 18% | Neither species is incorporated appreciably | approximately five | about 56% | 95.6% | 98.3% | 73 plaques per ng | 109 fold | 73 transfectants per ng of DNA | 1200×10^-4 | – |
| Nc1ccn([C@H]2C[C@H](O)[C@@H](COP(=O)(O)OP(=O)(O)OP(=O)(O)O)O2)c(=O)n1 [dCTP, reference compound] | – | – | nine | – | – | – | 165 plaques per ng | – | 165 transfectants per ng of DNA | 11 × 10^-4 | 2.4 fold |
